Legend:
[1] = test system: Rattus norvegicus; assay: Effect on heart rate in spontaneously hypertensive rat assessed as heart rate level at 80 mg/kg, po measured after 6 hrs by tail-cuff method (reference value: 411.12 +/- 19.1 bpm); format: ADME, organism-based; details: in vivo
[2] = species on record: Rattus norvegicus; assay: Ratio of pA2 for alpha-1b adrenergic receptor in SPF rat spleen to pA2 for alpha-1a adrenergic receptor in SPF rat prostatic vas deferens; format: tissue-based
[3] = test system: Rattus norvegicus; assay: Antihypertensive activity in spontaneously hypertensive rat assessed as diastolic arterial pressure at 80 mg/kg, po measured after 2 hrs by tail-cuff method (reference value: 149.90 +/- 6 mmHg); format: functional
[4] = test system: Rattus norvegicus; assay: Antihypertensive activity in spontaneously hypertensive rat assessed as mean arterial pressure at 80 mg/kg, po measured after 1 hr by tail-cuff method (reference value: 160 +/- 9.97 mmHg); format: functional
[5] = test system: Rattus norvegicus; assay: Antihypertensive activity in spontaneously hypertensive rat assessed as mean arterial pressure at 80 mg/kg, po measured after 4 hrs by tail-cuff method (reference value: 150.30 +/- 9.26 mmHg); format: functional
[6] = test system: Rattus norvegicus; assay: Effect on heart rate in spontaneously hypertensive rat assessed as heart rate level at 80 mg/kg, po measured after 8 hrs by tail-cuff method (reference value: 412.77 +/- 11.3 bpm); format: ADME, organism-based; details: in vivo
[7] = test system: Rattus norvegicus; assay: Antihypertensive activity in spontaneously hypertensive rat assessed as diastolic arterial pressure at 80 mg/kg, po measured after 1 hr by tail-cuff method (reference value: 147.33 +/- 9.8 mmHg); format: functional
[8] = test system: Rattus norvegicus; assay: Antihypertensive activity in spontaneously hypertensive rat assessed as mean arterial pressure at 80 mg/kg, po measured after 8 hrs by tail-cuff method (reference value: 153.55 +/- 11.43 mmHg); format: functional
[9] = test system: Rattus norvegicus; assay: Antihypertensive activity in spontaneously hypertensive rat assessed as systolic arterial pressure at 80 mg/kg, po measured after 6 hrs by tail-cuff method (reference value: 179.36 +/- 18.33 mmHg); format: functional
[10] = test system: Rattus norvegicus; assay: Antihypertensive activity in spontaneously hypertensive rat assessed as mean arterial pressure at 80 mg/kg, po measured after 0 hrs by tail-cuff method (reference value: 161.70 +/- 5.12 mmHg); format: functional
[11] = test system: Rattus norvegicus; assay: Antihypertensive activity in spontaneously hypertensive rat assessed as diastolic arterial pressure at 80 mg/kg, po measured after 4 hrs by tail-cuff method (reference value: 136.12 +/- 5.3 mmHg); format: functional
[12] = test system: Rattus norvegicus; assay: Antihypertensive activity in spontaneously hypertensive rat assessed as systolic arterial pressure at 80 mg/kg, po measured after 1 hr by tail-cuff method (reference value: 185.35 +/- 10.30 mmHg); format: functional
[13] = test system: Rattus norvegicus; assay: Antihypertensive activity in spontaneously hypertensive rat assessed as systolic arterial pressure at 80 mg/kg, po measured after 2 hrs by tail-cuff method (reference value: 189.20 +/- 12.31 mmHg); format: functional
[14] = test system: Rattus norvegicus; assay: Antihypertensive activity in spontaneously hypertensive rat assessed as mean arterial pressure at 80 mg/kg, po measured after 6 hrs by tail-cuff method (reference value: 151.48 +/- 12.24 mmHg); format: functional

In the case of `COc1cc2c(cc1OCC(O)CN1CCN(C(=O)C3CCCO3)CC1)C(=O)C(C)OC2` (centres undefined), the Activity [1] is reported as 411.01 bpm, the Ratio [2] is reported as 6.3 and the Activity [3] is reported as 131.86 mmHg. It also gave an Activity [4] of 152.5 mmHg, an Activity [5] of 127.12 mmHg and an Activity [6] of 413.16 bpm. For the same compound, the Activity [7] was 144.15 mmHg, the Activity [8] was 151.39 mmHg and the Activity [9] was 157.46 mmHg. It also gave an Activity [10] of 166.7 mmHg, an Activity [11] of 120.54 mmHg and an Activity [12] of 169.21 mmHg. It also gave an Activity [13] of 150.8 mmHg and an Activity [14] of 140.83 mmHg.

Reference: ChEMBL document CHEMBL4340549, “Design, synthesis and biological evaluation of isochroman-4-one hybrids bearing piperazine moiety as antihypertensive agent candidates” (Bioorg Med Chem, 2019)
